# Test results as given in ChEMBL document CHEMBL1137550, “New potent acetylcholinesterase inhibitors in the tetracyclic triterpene series” (J Med Chem, 2007).
# Columns and labels:
# Cholinesterase = Cholinesterase (Homo sapiens, UniProt P06276)
# Description: Inhibition of human serum BuChE by Ellman's method
# Acetylcholinesterase [1] = molecular target: Acetylcholinesterase (Torpedo californica, UniProt P04058)
# Description: Inhibition of Torpedo californica AChE by Ellman's method
# Acetylcholinesterase [2] = molecular target: T1, Acetylcholinesterase (Bos taurus, UniProt P23795); experiment: Inhibition of bovine erythrocytes AChE by Ellman's method
# T1 sequence (P23795 whole entry): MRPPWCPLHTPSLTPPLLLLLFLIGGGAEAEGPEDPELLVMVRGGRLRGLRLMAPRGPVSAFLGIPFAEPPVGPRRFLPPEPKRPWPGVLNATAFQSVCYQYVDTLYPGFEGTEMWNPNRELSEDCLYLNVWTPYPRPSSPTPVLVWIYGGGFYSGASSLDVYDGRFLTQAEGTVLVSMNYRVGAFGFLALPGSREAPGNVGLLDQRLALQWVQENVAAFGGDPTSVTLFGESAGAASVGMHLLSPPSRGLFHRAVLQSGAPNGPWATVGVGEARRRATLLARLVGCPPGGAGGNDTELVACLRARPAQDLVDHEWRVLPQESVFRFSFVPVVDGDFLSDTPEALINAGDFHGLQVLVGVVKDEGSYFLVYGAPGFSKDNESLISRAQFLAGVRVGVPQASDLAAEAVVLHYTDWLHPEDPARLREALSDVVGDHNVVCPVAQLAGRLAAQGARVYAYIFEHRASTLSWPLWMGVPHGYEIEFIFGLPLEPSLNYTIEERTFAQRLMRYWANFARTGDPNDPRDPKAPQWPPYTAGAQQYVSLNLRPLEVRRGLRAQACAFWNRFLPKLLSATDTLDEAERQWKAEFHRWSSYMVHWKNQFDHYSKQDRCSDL
# Acetylcholinesterase [3] = molecular target: Acetylcholinesterase (Homo sapiens, UniProt P22303)
# Description: Inhibition of human recombinant AChE by Ellman's method
# Acetylcholinesterase [4] = molecular target: Acetylcholinesterase (Electrophorus electricus, UniProt O42275)
# Sequence of Acetylcholinesterase (Electrophorus electricus, UniProt O42275) (O42275 whole entry): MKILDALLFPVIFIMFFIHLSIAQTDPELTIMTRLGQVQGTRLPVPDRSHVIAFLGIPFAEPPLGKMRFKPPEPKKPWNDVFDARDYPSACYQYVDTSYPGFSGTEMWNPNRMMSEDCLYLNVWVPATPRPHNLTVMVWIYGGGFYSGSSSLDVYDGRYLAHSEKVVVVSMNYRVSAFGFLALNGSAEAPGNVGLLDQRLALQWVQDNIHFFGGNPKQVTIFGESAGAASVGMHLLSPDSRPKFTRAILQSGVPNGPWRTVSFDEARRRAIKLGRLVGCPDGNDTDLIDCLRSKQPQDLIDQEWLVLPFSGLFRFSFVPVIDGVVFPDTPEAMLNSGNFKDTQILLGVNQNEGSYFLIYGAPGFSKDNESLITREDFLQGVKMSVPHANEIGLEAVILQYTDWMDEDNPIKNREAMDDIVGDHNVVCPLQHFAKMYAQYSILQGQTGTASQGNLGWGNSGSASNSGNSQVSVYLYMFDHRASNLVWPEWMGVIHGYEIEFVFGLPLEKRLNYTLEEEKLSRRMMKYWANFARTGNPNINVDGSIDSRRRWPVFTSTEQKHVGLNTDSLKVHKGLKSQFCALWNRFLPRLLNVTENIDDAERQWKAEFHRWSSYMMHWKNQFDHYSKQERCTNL
# Description: Inhibition of Electrophorus electricus AChE by Ellman's method
# Sequence of Cholinesterase (P06276 whole entry): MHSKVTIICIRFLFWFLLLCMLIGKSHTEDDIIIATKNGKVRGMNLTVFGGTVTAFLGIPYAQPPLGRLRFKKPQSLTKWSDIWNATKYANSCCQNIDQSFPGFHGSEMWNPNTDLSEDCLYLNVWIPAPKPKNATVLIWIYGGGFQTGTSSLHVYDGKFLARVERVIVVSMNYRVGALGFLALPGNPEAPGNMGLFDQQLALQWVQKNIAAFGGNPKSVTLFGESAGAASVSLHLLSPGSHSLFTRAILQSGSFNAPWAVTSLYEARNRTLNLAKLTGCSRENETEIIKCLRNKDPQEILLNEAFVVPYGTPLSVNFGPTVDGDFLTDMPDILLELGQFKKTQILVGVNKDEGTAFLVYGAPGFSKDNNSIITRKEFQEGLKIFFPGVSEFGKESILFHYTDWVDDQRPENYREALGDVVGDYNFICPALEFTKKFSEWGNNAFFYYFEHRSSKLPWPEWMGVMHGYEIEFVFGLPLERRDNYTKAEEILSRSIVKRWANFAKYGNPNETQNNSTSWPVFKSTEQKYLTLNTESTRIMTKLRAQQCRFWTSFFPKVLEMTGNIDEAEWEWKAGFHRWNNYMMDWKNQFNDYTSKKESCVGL
# Sequence of Acetylcholinesterase (Homo sapiens, UniProt P22303) (P22303 whole entry): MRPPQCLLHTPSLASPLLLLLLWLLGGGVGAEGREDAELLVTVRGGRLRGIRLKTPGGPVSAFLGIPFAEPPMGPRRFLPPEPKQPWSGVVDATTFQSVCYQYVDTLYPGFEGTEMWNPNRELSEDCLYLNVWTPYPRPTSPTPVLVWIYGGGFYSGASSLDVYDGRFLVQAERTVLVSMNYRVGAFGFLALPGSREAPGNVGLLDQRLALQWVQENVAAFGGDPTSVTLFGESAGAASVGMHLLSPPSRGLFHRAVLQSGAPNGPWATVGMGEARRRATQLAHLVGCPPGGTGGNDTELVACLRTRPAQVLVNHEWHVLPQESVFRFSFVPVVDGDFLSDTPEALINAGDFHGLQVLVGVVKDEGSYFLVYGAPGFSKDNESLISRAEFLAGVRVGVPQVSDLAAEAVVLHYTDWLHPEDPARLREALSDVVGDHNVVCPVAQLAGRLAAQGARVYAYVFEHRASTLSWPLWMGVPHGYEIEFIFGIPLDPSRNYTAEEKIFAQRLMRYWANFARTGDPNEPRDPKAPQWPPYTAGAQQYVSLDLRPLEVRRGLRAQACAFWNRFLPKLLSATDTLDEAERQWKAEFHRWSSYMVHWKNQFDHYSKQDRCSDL
# Sequence of Acetylcholinesterase (Torpedo californica, UniProt P04058) (P04058 whole entry): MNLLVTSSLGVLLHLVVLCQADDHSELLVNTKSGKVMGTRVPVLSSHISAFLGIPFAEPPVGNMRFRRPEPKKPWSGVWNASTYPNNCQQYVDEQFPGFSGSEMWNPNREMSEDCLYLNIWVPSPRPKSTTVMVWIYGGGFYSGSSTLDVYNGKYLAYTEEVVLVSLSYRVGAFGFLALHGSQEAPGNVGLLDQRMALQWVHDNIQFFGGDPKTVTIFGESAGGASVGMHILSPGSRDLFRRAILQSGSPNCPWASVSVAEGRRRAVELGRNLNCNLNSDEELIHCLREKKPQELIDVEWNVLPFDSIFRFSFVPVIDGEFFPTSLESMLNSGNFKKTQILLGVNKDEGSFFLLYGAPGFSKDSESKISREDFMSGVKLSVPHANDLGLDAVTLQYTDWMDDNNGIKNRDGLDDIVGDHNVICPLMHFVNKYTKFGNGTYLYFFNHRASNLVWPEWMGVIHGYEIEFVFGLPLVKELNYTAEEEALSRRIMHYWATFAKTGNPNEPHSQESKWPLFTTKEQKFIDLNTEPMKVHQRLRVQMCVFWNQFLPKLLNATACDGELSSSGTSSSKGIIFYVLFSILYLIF
SMILES,IC50 (Cholinesterase) [µM],IC50 (Acetylcholinesterase [1]) [µM],IC50 (Acetylcholinesterase [2]) [µM],IC50 (Acetylcholinesterase [3]) [µM],IC50 (Acetylcholinesterase [4]) [µM]
C[C@@H]([C@H]1[C@H](O)C[C@@]2(C)[C@@H]3CC[C@@H]4C(=CC[C@@H]5N=C(C(C)(C)C)OC[C@]54C)C[C@H]3C(=O)C[C@]12C)N(C)C,> 10,0.372,1.18,0.351,
CC(C)C(=O)N[C@H]1CCC23CC24C(=O)C[C@]2(C)[C@@H]([C@H](C)N(C)C)[C@H](O)C[C@@]2(C)[C@@H]4CC[C@H]3[C@]1(C)CO (some centres not stated),> 10,,,,> 10
CC(C)[C@H]1N[C@H]2CC=C3C[C@H]4C(=O)C[C@]5(C)[C@@H]([C@H](C)N(C)C)[C@H](O)C[C@@]5(C)[C@@H]4CC[C@H]3[C@]2(C)CO1,> 10,,,,2.38
CN[C@@H](C)[C@H]1[C@H](O)C[C@@]2(C)[C@@H]3CC[C@@H]4[C@@H](CC[C@H](NC(=O)C(C)C)[C@@]4(C)CO)C[C@H]3C(=O)C[C@]12C,1.44,,,,0.11
CN[C@@H](C)[C@H]1[C@H](O)C[C@@]2(C)[C@@H]3CC[C@@H]4C(=CC[C@@H]5N=C(C(C)C)OC[C@]54C)C[C@H]3C(=O)C[C@]12C,,0.485,2.23,0.517,0.106
CCC(CC)C1=N[C@H]2CC=C3C[C@H]4C(=O)C[C@]5(C)[C@@H]([C@H](C)N(C)C)[C@H](O)C[C@@]5(C)[C@@H]4CC[C@H]3[C@]2(C)CO1,1.54,,,,
CCC(C)C1=N[C@H]2CC=C3C[C@H]4C(=O)C[C@]5(C)[C@@H]([C@H](C)N(C)C)[C@H](O)C[C@@]5(C)[C@@H]4CC[C@H]3[C@]2(C)CO1 (some centres not stated),> 10,,,,
CCC1=N[C@H]2CC=C3C[C@H]4C(=O)C[C@]5(C)[C@@H]([C@H](C)N(C)C)[C@H](O)C[C@@]5(C)[C@@H]4CC[C@H]3[C@]2(C)CO1,> 10,,,,
CC(C)[C@H]1N[C@H]2CC[C@]34C[C@]35C(=O)C[C@]3(C)[C@@H]([C@H](C)N(C)C)C(O)C[C@@]3(C)[C@@H]5CC[C@H]4[C@]2(C)CO1 (some centres not stated),> 10,,,,0.82
CC(C)C1=N[C@H]2CC=C3C[C@H]4C(=O)C[C@]5(C)[C@@H]([C@H](C)N(C)C)[C@H](OC(=O)C(C)(C)C)C[C@@]5(C)[C@@H]4CC[C@H]3[C@]2(C)CO1,,0.724,1.39,0.839,0.11
CC(=O)O[C@@H]1C[C@@]2(C)[C@@H]3CC[C@@H]4C(=CC[C@@H]5N=C(C(C)C)OC[C@]54C)C[C@H]3C(=O)C[C@]2(C)[C@H]1[C@H](C)N(C)C,,,,,0.38
CC[C@H](C)C(=O)N[C@H]1CC=C2C[C@H]3C(=O)C[C@]4(C)[C@@H]([C@H](C)N(C)C)[C@H](O)C[C@@]4(C)[C@@H]3CC[C@H]2[C@]1(C)CO,> 10,,,,0.105
CC(C)C(=O)N[C@H]1CC=C2C[C@H]3C(=O)C[C@]4(C)[C@@H]([C@H](C)N(C)C)[C@H](O)C[C@@]4(C)[C@@H]3CC[C@H]2[C@]1(C)CO (racemic),1.93,,,,
CC[C@H](C)C(=O)N[C@H]1CC=C2C[C@H]3C(=O)C[C@]4(C)[C@@H]([C@H](C)N(C)C)[C@H](O)C[C@@]4(C)[C@@H]3CC[C@H]2[C@]1(C)CN,> 10,,,,
C[C@@H]([C@H]1[C@H](O)C[C@@]2(C)[C@@H]3CC[C@@H]4C(=CC[C@@H]5N=C(Cc6ccccc6)OC[C@]54C)C[C@H]3C(=O)C[C@]12C)N(C)C,0.38,,,,
CC[C@H](C)C1=N[C@H]2CC=C3C[C@H]4C(=O)C[C@]5(C)[C@@H]([C@H](C)N(C)C)[C@H](O)C[C@@]5(C)[C@@H]4CC[C@H]3[C@]2(C)CO1,> 10,0.237,1.36,0.265,
CC1=N[C@H]2CC=C3C[C@H]4C(=O)C[C@]5(C)[C@@H]([C@H](C)N(C)C)[C@H](O)C[C@@]5(C)[C@@H]4CC[C@H]3[C@]2(C)CO1,> 10,2.79,6.12,5.24,
CC(C)C1=N[C@H]2CC=C3CC4C(=O)C[C@]5(C)[C@@H]([C@H](C)N(C)C)[C@H](O)C[C@@]5(C)[C@@H]4CC[C@H]3[C@]2(C)CO1 (some centres not stated),> 1,0.385,0.756,0.299,0.031
C[C@@H]([C@H]1[C@H](O)C[C@@]2(C)[C@@H]3CC[C@@H]4C(=CC[C@@H]5N=C(c6ccccc6)OC[C@]54C)C[C@H]3C(=O)C[C@]12C)N(C)C,> 10,,,,
CC[C@H](C)C1=N[C@H]2CC[C@]34C[C@]35C(=O)C[C@]3(C)[C@@H]([C@H](C)N(C)C)[C@H](O)C[C@@]3(C)[C@@H]5CC[C@H]4[C@]2(C)CN1,,0.002,6.49,4.37,0.014
CCC(CC)C(=O)N[C@H]1CC=C2C[C@H]3C(=O)C[C@]4(C)[C@@H]([C@H](C)N(C)C)[C@H](O)C[C@@]4(C)[C@@H]3CC[C@H]2[C@]1(C)CO,> 10,,,,
CC[C@H](C)C(=O)N[C@H]1CC[C@H]2C[C@H]3C(=O)C[C@]4(C)[C@@H]([C@H](C)N(C)C)[C@H](O)C[C@@]4(C)[C@@H]3CC[C@H]2[C@]1(C)CN,,,,,1.34
CC[C@H](C)C(=O)N[C@H]1CC=C2C[C@H]3C(=O)C[C@]4(C)[C@@H]([C@H](C)N(C)C)[C@H](O)C[C@@]4(C)[C@@H]3CC[C@H]2[C@]1(C)/C=N/Cc1ccccc1,> 10,,,,
CC[C@H](C)C1=N[C@H]2CC=C3C[C@H]4C(=O)C[C@]5(C)[C@@H]([C@H](C)N(C)C)[C@H](O)C[C@@]5(C)[C@@H]4CC[C@H]3[C@]2(C)CN1,> 10,0.447,7.35,3.83,
CC(C)C1=N[C@H]2CC[C@H]3C=C4C(=O)C[C@]5(C)[C@@H]([C@H](C)N(C)C)[C@H](O)C[C@@]5(C)[C@@H]4CC[C@H]3[C@]2(C)CO1,1.45,,,,0.11
CC(C)C1=N[C@H]2CC[C@]34C[C@]35C(=O)C[C@]3(C)[C@@H]([C@H](C)N(C)C)[C@H](O)C[C@@]3(C)[C@@H]5CC[C@H]4[C@]2(C)CN1,> 10,0.002,3.28,3.11,0.018
CC(C)C(=O)N[C@H]1CC[C@H]2C[C@H]3C(=O)C[C@]4(C)[C@@H]([C@H](C)N(C)C)[C@H](O)C[C@@]4(C)[C@@H]3CC[C@H]2[C@]1(C)CN,,,,,0.291
